Results: patent US20130029970A1 (priority 2009, published 2013)
Read-outs that look alike come from different tables or passages of the source.

Tests used:
human CB2 (hCB2) = biological target: T1, human CB2 (hCB2) (Homo sapiens, UniProt P34972); test: 35S GTPγS binding assay, hCB2 agonist; assay type: biochemical
T1 construct: (cDNA clone) CNR0200000
Outline: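 Membranes (5 μg) from cells transfected with hCB2 cDNA in pcDNA3.1+ incubated with SPA beads, 0.1 nM [35S]GTPγS and 20 uM GDP in 50 mM HEPES pH 7.4, 100 mM NaCl, 5 mM MgCl2, 0.001% saponin, ± test compound. Incubation 90 min at room temperature; bound label read by scintillation counting.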

[1] = biological target: T2, recombinant human cannabinoid receptor CB2 (Homo sapiens, UniProt P34972); test: Cannabinoid receptor radioligand binding assay, [3H]-CP 55,940 displacement, hCB2
T2 construct: (cDNA clone) CNR0200000
Outline: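 Membranes from hCB2-transfected cells, prepared by 1000×g then 40,000×g centrifugation, resuspended in 20 mM HEPES pH 7.4, 5 mM MgCl2, 1 mM EDTA, 10% sucrose.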

human CB1 receptors = biological target: T3, human CB1 receptors (Homo sapiens, UniProt P21554); test: cAMP assay in HEK-293 cells, hCB1 agonist; assay type: cell-based; details: inhibition of forskolin-stimulated cAMP, HEK-293 cells; for EC50: read-out: hCB1 EC50 (cAMP ag)
T3 construct: (cDNA clone) CNR01L000
Outline: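 Stable hCB1 HEK-293 cells suspended in HBSS with 10 mM HEPES and 0.1% fatty acid-free BSA, incubated 30 min at 37° C. with compound plus forskolin (90 uM in the 3× compound solution). Lysed cAMP measured by enzyme-fragment kit; EC50 = 50% inhibition of forskolin-stimulated cAMP (forskolin maximum = 100%), sigmoidal fit.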

[2] = GTPγS agonist, HEK-293 membranes, read-out: hCB2 EC50 (GTPyS ag)

T3 sequence (P21554 whole entry): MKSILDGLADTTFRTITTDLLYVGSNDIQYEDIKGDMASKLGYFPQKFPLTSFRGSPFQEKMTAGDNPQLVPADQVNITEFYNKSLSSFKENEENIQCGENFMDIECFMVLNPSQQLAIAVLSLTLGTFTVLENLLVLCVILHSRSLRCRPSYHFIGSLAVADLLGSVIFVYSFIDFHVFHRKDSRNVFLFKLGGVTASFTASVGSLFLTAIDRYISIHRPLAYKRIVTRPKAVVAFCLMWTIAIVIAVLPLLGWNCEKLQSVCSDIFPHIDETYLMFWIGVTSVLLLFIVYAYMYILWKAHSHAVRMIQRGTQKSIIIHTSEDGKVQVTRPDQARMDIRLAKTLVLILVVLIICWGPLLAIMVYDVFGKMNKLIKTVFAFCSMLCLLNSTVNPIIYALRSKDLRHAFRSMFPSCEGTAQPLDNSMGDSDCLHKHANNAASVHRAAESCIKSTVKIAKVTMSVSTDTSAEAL
T1 sequence (P34972 whole entry): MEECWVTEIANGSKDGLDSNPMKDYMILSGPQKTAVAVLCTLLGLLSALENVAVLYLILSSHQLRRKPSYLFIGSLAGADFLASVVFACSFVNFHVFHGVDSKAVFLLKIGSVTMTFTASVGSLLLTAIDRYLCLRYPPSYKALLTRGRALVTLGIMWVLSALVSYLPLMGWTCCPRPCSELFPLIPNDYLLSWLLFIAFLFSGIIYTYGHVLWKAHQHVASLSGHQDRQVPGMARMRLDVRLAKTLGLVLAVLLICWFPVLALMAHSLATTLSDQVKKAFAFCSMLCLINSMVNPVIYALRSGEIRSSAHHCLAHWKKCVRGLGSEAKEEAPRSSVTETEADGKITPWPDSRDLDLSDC
T2 sequence (P34972 whole entry): as above

## COc1ccc(C(C)(O)c2cc3cc(C)n(CCN4CCOCC4)c3s2)cc1 (stereo not drawn) [Compound 101, 1-(4-methoxyphenyl)-1-(5-methyl-6-(2-morpholinoethyl)-6H-thieno[2,3-b]pyrrol-2-yl)ethanol]
Human CB2 (hCB2); [2]
  EC50: < 100 nM
[1]
  IC50: 100 to 1000 nM
Human CB1 receptors
  hCB1 EC50 (cAMP ag, nM): NS (NS means “Not Significant,” which means less than 30% agonist activity when compared to the positive control.)

## COc1ccc(C(=O)c2cc3cc(C)n(CCCCNS(C)(=O)=O)c3s2)cc1 [Compound 102, N-(4-(2-(4-Methoxybenzoyl)-5-methyl-6H-thieno[2,3-b]pyrrol-6-yl)butyl)methanesulfonamide]
Human CB2 (hCB2); [2]
  EC50: < 100 nM
[1]
  IC50: < 100 nM
Human CB1 receptors
  hCB1 EC50 (cAMP ag, nM): NS (NS means “Not Significant,” which means less than 30% agonist activity when compared to the positive control.)

## COc1ccc(Cn2c(C)cc3cc(C(=O)c4ccc(OC)cc4)sc32)cc1 [Compound 103, (6-(4-Methoxybenzyl)-5-methyl-6H-thieno[2,3-b]pyrrol-2-yl)(4-methoxyphenyl)methanone]
Human CB2 (hCB2)
  EC50: 100 to 1000 nM
[1]
  IC50: 100 to 1000 nM
Human CB1 receptors
  hCB1 EC50 (cAMP ag, nM): NS (NS means “Not Significant,” which means less than 30% agonist activity when compared to the positive control.)

## COc1ccc(C(=S)c2cc3cc(C)n(CCN4CCOCC4)c3s2)cc1 [Compound 104, (4-methoxyphenyl)(5-methyl-6-(2-morpholinoethyl)-6H-thieno[2,3-b]pyrrol-2-yl)methanethione]
Human CB2 (hCB2)
  EC50: 100 to 1000 nM
[1]
  IC50: 1000 to 10000 nM
Human CB1 receptors
  hCB1 EC50 (cAMP ag, nM): NS (NS means “Not Significant,” which means less than 30% agonist activity when compared to the positive control.)

## COc1ccc(C(=O)c2cc3cc(C)n(CCCNS(N)(=O)=O)c3s2)cc1 [Compound 105]
Human CB2 (hCB2)
  EC50: 100 to 1000 nM
[1]
  IC50: 1000 to 10000 nM
Human CB1 receptors
  hCB1 EC50 (cAMP ag, nM): NS (NS means “Not Significant,” which means less than 30% agonist activity when compared to the positive control.)

## Cc1cc2cc(C(=O)c3ccc4c(c3)OCO4)sc2n1CCN1CCOCC1 [Compound 106, Benzo[d][1,3]dioxol-5-yl(5-methyl-6-(2-morpholinoethyl)-6H-thieno[2,3-b]pyrrol-2-yl)methanone]
Human CB2 (hCB2)
  EC50: < 100 nM
[1]
  IC50: 100 to 1000 nM
Human CB1 receptors
  hCB1 EC50 (cAMP ag, nM): NS (NS means “Not Significant,” which means less than 30% agonist activity when compared to the positive control.)

## COc1ccc(C(=O)c2cc3cc(C)n(CCCN4CCOCC4)c3s2)cc1 [Compound 107, (4-Methoxyphenyl)(5-methyl-6-(3-morpholinopropyl)-6H-thieno[2,3-b]pyrrol-2-yl)methanone]
Human CB2 (hCB2); [2]
  EC50: < 100 nM
[1]
  IC50: < 100 nM
Human CB1 receptors
  EC50: 100 to 1000 nM

## COc1ccc(C(=O)c2cc3cc(C)n(CCCNC(C)(C)C)c3s2)cc1 [Compound 108, (6-(3-(tert-Butylamino)propyl)-5-methyl-6H-thieno[2,3-b]pyrrol-2-yl)(4-methoxyphenyl)methanone]
Human CB2 (hCB2)
  EC50: 100 to 1000 nM
[1]
  IC50: > 10000 nM
Human CB1 receptors
  hCB1 EC50 (cAMP ag, nM): NS (NS means “Not Significant,” which means less than 30% agonist activity when compared to the positive control.)

## COc1ccc(C(=O)c2cc3cc(C)n(CCCNS(C)(=O)=O)c3s2)cn1 [Compound 109, N-(3-(2-(6-Methoxynicotinoyl)-5-methyl-6H-thieno[2,3-b]pyrrol-6-yl)propyl)methanesulfonamide]
Human CB2 (hCB2); [2]
  EC50: < 100 nM
[1]
  IC50: 100 to 1000 nM
Human CB1 receptors
  hCB1 EC50 (cAMP ag, nM): NS (NS means “Not Significant,” which means less than 30% agonist activity when compared to the positive control.)

## COc1ccc(C(=O)c2cc3cc(C)n(CCN4CCSCC4)c3s2)cc1 [Compound 110, (4-Methoxyphenyl)(5-methyl-6-(2-thiomorpholinoethyl)-6H-thieno[2,3-b]pyrrol-2-yl)methanone]
Human CB2 (hCB2)
  EC50: < 100 nM
[1]
  IC50: < 100 nM
Human CB1 receptors
  EC50: 1000 to 10000 nM

## Cc1cc2cc(C(=O)c3ccc(OC(C)C)cc3)sc2n1CCN1CCOCC1 [Compound 111, (4-Isopropoxyphenyl)(5-methyl-6-(2-morpholinoethyl)-6H-thieno[2,3-b]pyrrol-2-yl)methanone]
Human CB2 (hCB2)
  EC50: 100 to 1000 nM
[1]
  IC50: 100 to 1000 nM
Human CB1 receptors
  hCB1 EC50 (cAMP ag, nM): NS (NS means “Not Significant,” which means less than 30% agonist activity when compared to the positive control.)

## COc1ccc(C(=O)c2cc3cc(C)n(Cc4ccncc4)c3s2)cc1 [Compound 112, (4-Methoxyphenyl)(5-methyl-6-(pyridin-4-ylmethyl)-6H-thieno[2,3-b]pyrrol-2-yl)methanone]
Human CB2 (hCB2)
  EC50: 100 to 1000 nM
[1]
  IC50: 100 to 1000 nM
Human CB1 receptors
  hCB1 EC50 (cAMP ag, nM): NS (NS means “Not Significant,” which means less than 30% agonist activity when compared to the positive control.)

## COc1ccc(C(=O)c2cc3cc(C)n(S(=O)(=O)N(C)C)c3s2)cn1 [Compound 113, 2-(6-Methoxynicotinoyl)-N,N,5-trimethyl-6H-thieno[2,3-b]pyrrole-6-sulfonamide]
Human CB2 (hCB2)
  EC50: < 100 nM
[1]
  IC50: < 100 nM
Human CB1 receptors
  hCB1 EC50 (cAMP ag, nM): NS (NS means “Not Significant,” which means less than 30% agonist activity when compared to the positive control.)

## COc1ccc(C(=O)c2cc3cc(C)n(Cc4ccccc4)c3s2)c(Cl)c1 [Compound 114, (6-Benzyl-5-methyl-6H-thieno[2,3-b]pyrrol-2-yl)(2-chloro-4-methoxyphenyl)methanone]
Human CB2 (hCB2); [2]
  EC50: < 100 nM
[1]
  IC50: < 100 nM
Human CB1 receptors
  EC50: 1000 to 10000 nM

## CSc1ccc(C(=O)c2cc3cc(C)n(CCN4CCOCC4)c3s2)cc1 [Compound 115, (5-Methyl-6-(2-morpholinoethyl)-6H-thieno[2,3-b]pyrrol-2-yl)(4-(methylthio)phenyl)methanone]
Human CB2 (hCB2)
  EC50: 100 to 1000 nM
[1]
  IC50: 100 to 1000 nM
Human CB1 receptors
  hCB1 EC50 (cAMP ag, nM): NS (NS means “Not Significant,” which means less than 30% agonist activity when compared to the positive control.)

## COc1ccc(C(=O)c2cc3cc(C)n(CCN4CCOCC4)c3s2)cc1Cl [Compound 116, (3-Chloro-4-methoxyphenyl)(5-methyl-6-(2-morpholinoethyl)-6H-thieno[2,3-b]pyrrol-2-yl)methanone]
Human CB2 (hCB2)
  EC50: < 100 nM
[1]
  IC50: 100 to 1000 nM
Human CB1 receptors
  hCB1 EC50 (cAMP ag, nM): NS (NS means “Not Significant,” which means less than 30% agonist activity when compared to the positive control.)

## COc1ccc(C(=O)c2cc3cc(C)n(CCN4CCCCC4)c3s2)cn1 [Compound 117, (6-Methoxypyridin-3-yl)(5-methyl-6-(2-(piperidin-1-yl)ethyl)-6H-thieno[2,3-b]pyrrol-2-yl)methanone]
Human CB2 (hCB2)
  EC50: < 100 nM
[1]
  IC50: 100 to 1000 nM
Human CB1 receptors
  hCB1 EC50 (cAMP ag, nM): NS (NS means “Not Significant,” which means less than 30% agonist activity when compared to the positive control.)

## CCc1ccc(C(=O)c2cc3cc(C)n(CCN4CCOCC4)c3s2)cc1 [Compound 122, (4-Ethylphenyl)(5-methyl-6-(2-morpholinoethyl)-6H-thieno[2,3-b]pyrrol-2-yl)methanone]
Human CB2 (hCB2)
  EC50: < 100 nM
[1]
  IC50: < 100 nM
Human CB1 receptors
  EC50: 1000 to 10000 nM

## Cc1cc2cc(C(=O)c3cccc(Cl)n3)sc2n1CCN1CCOCC1 [Compound 123, (6-Chloropyridin-2-yl)(5-methyl-6-(2-morpholinoethyl)-6H-thieno[2,3-b]pyrrol-2-yl)methanone]
Human CB2 (hCB2)
  EC50: 100 to 1000 nM
[1]
  IC50: 100 to 1000 nM
Human CB1 receptors
  hCB1 EC50 (cAMP ag, nM): NS (NS means “Not Significant,” which means less than 30% agonist activity when compared to the positive control.)

## Cc1ccc(C(=O)c2cc3cc(C)n(CCN4CCOCC4)c3s2)cc1 [Compound 124, (5-Methyl-6-(2-morpholinoethyl)-6H-thieno[2,3-b]pyrrol-2-yl)(p-tolyl)methanone]
Human CB2 (hCB2)
  EC50: < 100 nM
[1]
  IC50: 100 to 1000 nM
Human CB1 receptors
  EC50: 1000 to 10000 nM

## Cc1ccc(C(O)c2cc3cc(C)n(CCN4CCOCC4)c3s2)cn1 (stereo not drawn) [Compound 125, (5-Methyl-6-(2-morpholinoethyl)-6H-thieno[2,3-b]pyrrol-2-yl)(6-methylpyridin-3-yl)methanol]
Human CB2 (hCB2)
  EC50: 100 to 1000 nM
[1]
  IC50: > 10000 nM
Human CB1 receptors
  hCB1 EC50 (cAMP ag, nM): NS (NS means “Not Significant,” which means less than 30% agonist activity when compared to the positive control.)

## COc1cc(F)c(C(=O)c2cc3cc(C)n(CCN4CCOCC4)c3s2)c(F)c1 [Compound 127, (2,6-difluoro-4-methoxyphenyl)(5-methyl-6-(2-morpholinoethyl)-6H-thieno[2,3-b]pyrrol-2-yl)methanone]
Human CB2 (hCB2)
  EC50: < 100 nM
[1]
  IC50: < 100 nM
Human CB1 receptors
  EC50: 1000 to 10000 nM

## Cc1ccc(C(=O)c2cc3cc(C)n(CCN4CCOCC4)c3s2)cn1 [Compound 130, (5-methyl-6-(2-morpholinoethyl)-6H-thieno[2,3-b]pyrrol-2-yl)(6-methylpyridin-3-yl)methanone]
Human CB2 (hCB2)
  EC50: 100 to 1000 nM
[1]
  IC50: 1000 to 10000 nM
Human CB1 receptors
  hCB1 EC50 (cAMP ag, nM): NS (NS means “Not Significant,” which means less than 30% agonist activity when compared to the positive control.)

## COc1ccc(C(=O)c2cc3cc(C)n(CCN4CCOCC4)c3s2)nc1 [Compound 131, (5-methoxypyridin-2-yl)(5-methyl-6-(2-morpholinoethyl)-6H-thieno[2,3-b]pyrrol-2-yl)methanone]
Human CB2 (hCB2)
  EC50: < 100 nM
[1]
  IC50: 100 to 1000 nM
Human CB1 receptors
  hCB1 EC50 (cAMP ag, nM): NS (NS means “Not Significant,” which means less than 30% agonist activity when compared to the positive control.)
